Data: patent US20260325473A1, “N-Beta-Hydroxybutyryl-Amino Acids and Related Compositions and Methods” (The Board of Trustees of the Leland Stanford Junior …, priority 2023, published 2026)

Experiments:
[1] = test system: primary cardiomyocytes; experiment: Keto amino acid production in BHB-treated cardiomyocytes; type: cell-based, human; conditions: BHB 25 mM, overnight
Method: Human induced pluripotent stem cells (iPSCs) culture and cardiac differentiation into cardiomyocytes (CMs). Human iPSCs from healthy donors were provided by Stanford Cardiovascular Institute Biobank and cultured in the E8 medium. When iPSCs were grown to 95% confluence, the E8 medium was replaced with RPMI 1640 (GIBCO) supplemented with B27 minus insulin (GIBCO) and 5 µM CHIR-99021 (Selleck Chemicals) to start cardiac differentiation at day 0. On day 2, the medium was replaced with RPMI-B27 minus insulin. On day 3, the medium was changed to RPMI-B27 minus insulin containing 5 μM IWR-1 (Selleck Chemicals) and was maintained for 48 hours. On day 5, the medium was changed back to RPMI-B27 minus insulin and was maintained for 48 hours. Then, the cells were incubated with complete CM medium consisting of RPMI 1640 medium and B27 supplement plus insulin (GIBCO). On day 12, the medium was replaced with RPMI-B27 without D-glucose (GIBCO) for metabolic purification of CMs for 4 days. Then, the medium was changed to the complete CM medium and replaced every 2 days. Human iPSC-CMs were dissociated by TrypLE Express (GIBCO) and re-plated on Matrigel-coated 12-well plate for further experiments. Cultures were maintained at 37° C. in a humidified incubator with 5% (v/v) CO^2.
Cellular enzyme activity assays. Cells were plated in 12-well plates at 70-80% confluence. […]

[2] = test system: diet-induced obese (DIO) mice; experiment: Acute administration in DIO mice in metabolic chambers; type: in vivo, mouse; conditions: 50 mg/kg IP, single
Method: General animal information. Animal experiments were performed according to procedure approved by the Stanford University Administrative Panel on Laboratory Animal Care (APLAC). Mice were maintained in 12-hr light-dark cycles at 22° C. and ~50% relative humidity and fed a standard irradiated rodent chow diet. Where indicated, high-fat diet (D12492, Research Diets 60% kcal from fat) and ketogenic diet (D06040601, Research Diets, 80% kcal fat/15% kcal protein/5% kcal carbohydrate) was used. Male C57BL/6J (stock no. 000664) and male C57BL/6J DIO mice (stock no. 380050) were purchased from Jackson Laboratory. Male C57BL/6NCrl (stock no. 027) mice were purchased from Charles River Laboratory. Whole body CNDP2-KO mice (catalog number, C57BL/6NCrl-Cndp2em1 (IMPC) Mbp/Mmucd, RRID: MMRRC_043492-UCD) were obtained from the Mutant Mouse Regional Resource Center, a NCRR-NIH funded strain repository. For in vivo injection of mice with metabolites, compounds were dissolved in 18:1:1 (by volume) of saline/Kolliphor EL (Sigma Aldrich)/DMSO. Compounds were administered to mice daily via intraperitoneal injections at 5 μl/g body weight at the indicated doses. For all injection experiments, mice were mock injected with the vehicle for 3-5 days until body weights have stabilized. Sample sizes were determined on the basis of previous experiments using similar methodologies. For metabolite administration experiments, mice were randomly assigned to treatment groups. Experimenters were not blinded to groups.

[3] = test system: DIO mice; experiment: Food, kaolin and water intake in DIO mice; type: in vivo, mouse; conditions: 50 mg/kg IP, single; 18 h
Method: Kaolin and water intake assays. DIO mice were individually housed and allowed ad libitum access to kaolin pellets for 5 days before the start of the experiment. Mice were also provided high-fat diet and had ad libitum access to water. On the day of the experiment, kaolin and high-fat diet pellets were replaced with fresh pellets. Mice were then injected with either vehicle or BHB-Phe (50 mg/kg, IP), and high-fat diet, kaolin and water intake were measured after 18 h.

- water intake [3]: without affecting water intake
Compound: CC(O)CC(=O)N[C@@H](Cc1ccccc1)C(=O)O (some centres unmarked) [BHB-Phe, N-betahydroxybutyryl-phenylalanine]
- keto amino acid production by cardiomyocytes [1]: minor amount
- food intake (metabolic chambers) [2]: reduced food intake
- ambulatory movement ([2]; over 10 h): without affecting movement
- energy expenditure: carbon dioxide production (VCO2) ([2]; over 10 h): without affecting movement, oxygen consumption or CO^2 production
- energy expenditure: oxygen consumption (VO2) ([2]; over 10 h): without affecting movement, oxygen consumption
- reduction of food intake ([2]; over 10 h): ~ 30%
- respiratory exchange ratio (RER) ([2]; over 10 h): reduction in respiratory exchange ratio (RER)
- ambulatory movement ([2]; over 10 h, listed as Keto-Phe): no effects
- energy expenditure: carbon dioxide production (VCO2) ([2]; over 10 h, listed as Keto-Phe): no effects
- energy expenditure: oxygen consumption (VO2) ([2]; over 10 h, listed as Keto-Phe): no effects
- respiratory exchange ratio (RER) ([2]; over 10 h, listed as Keto-Phe): no effects
- food intake (kaolin/water experiment) [3]: suppressed food intake
- kaolin consumption [3]: without affecting water intake or kaolin consumption
